Test results: PMC3984011 (Journal of medicinal chemistry, 2013)
Values belong to the compound of their own block, whether it stands above or below them.

Key:
Type in all cases: cell-based
[1] = molecular target: T1, DAGLβ (diacylglycerol lipase-β) (Mus musculus, UniProt Q91WC9); experiment: gel-based competitive ABPP, DAGLβ-HEK293T lysate, probe […]; conditions: read-out: DAGLβ % inhibition (100 nM)
T1 sequence (Q91WC9 1-669): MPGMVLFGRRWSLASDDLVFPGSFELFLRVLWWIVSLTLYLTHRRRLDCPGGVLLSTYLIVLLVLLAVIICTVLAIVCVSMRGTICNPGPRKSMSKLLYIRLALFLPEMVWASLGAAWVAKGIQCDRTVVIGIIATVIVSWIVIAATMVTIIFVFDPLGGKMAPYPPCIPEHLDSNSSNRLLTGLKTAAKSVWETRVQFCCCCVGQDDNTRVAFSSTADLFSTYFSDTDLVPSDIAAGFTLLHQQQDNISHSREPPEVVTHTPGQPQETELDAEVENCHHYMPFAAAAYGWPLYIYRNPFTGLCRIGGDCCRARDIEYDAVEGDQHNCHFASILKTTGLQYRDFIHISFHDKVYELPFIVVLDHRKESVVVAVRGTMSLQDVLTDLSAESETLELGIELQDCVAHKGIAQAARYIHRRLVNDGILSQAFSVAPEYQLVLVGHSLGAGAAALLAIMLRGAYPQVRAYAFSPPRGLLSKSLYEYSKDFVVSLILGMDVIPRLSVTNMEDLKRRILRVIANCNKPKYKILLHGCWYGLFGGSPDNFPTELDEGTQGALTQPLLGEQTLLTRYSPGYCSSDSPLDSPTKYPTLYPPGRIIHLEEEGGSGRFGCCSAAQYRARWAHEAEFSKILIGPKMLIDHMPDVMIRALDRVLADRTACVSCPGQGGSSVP

[2] = molecular target: T1, DAGLβ (diacylglycerol lipase-β); experiment: competitive ABPP-SILAC in Neuro2A; conditions: N2a, read-out: % inhibition at 20 μM
[3] = molecular target: T1, DAGLβ (diacylglycerol lipase-β); experiment: gel-based competitive ABPP, DAGLβ-HEK293T membrane lysate, probe […]; conditions: read-out: DAGLβ % inhibition (100 nM)

inhibition at 0.1 µM [1]: 55.3%
SMILES: COc1ccccc1-c1ccc(-c2cn(C(=O)N3CCCCC3Cc3ccccc3)nn2)cc1 (racemic) [compound 27, KT172]

inhibition at 20 µM [2]: > 80%
SMILES: Cc1cc(C)n2c1C=C1C=CC(CCC(=O)NCCCCCN(CCc3ccccc3)C(=O)n3cc(-c4ccc(OC(F)(F)F)cc4)nn3)=[N+]1[B-]2(F)F [compound 38, HT-01]

SMILES: O=C(N1CCCCC1Cc1ccccc1)n1cc(-c2ccc(-c3ccccc3)cc2)nn1 (stereo not drawn) [compound 11, KT109]
inhibition at 0.1 µM [3]: 60.8%
